From US9616107B2, “Therapy for kidney disease and/or heart failure” (priority 2011, dated 2017)
Ends that are not written are not given here.

Tests used:
[1] = assay type: physicochemical
Source text: Elliotts B® Solution is a sterile, non-pyrogenic, isotonic buffer that is approved by the United States Food and Drug Administration (FDA) for intrathecal administration of methotrexate sodium and cytarabine. Elliotts B® Solution will be used as a diluent for VD since it provides the appropriate isotonicity and pH attributes desired for SC administration. […] The detailed contents of Elliots B® Solution are provided in the Trial Dispensing Protocol. Storage conditions of the raw material, Elliotts B® Solution, as well as the reconstitution method will be supplied in a Pharmacy Guideline provided during the study.

[2] = Pharmacodynamic study of VD in canines: 10-day subcutaneous infusion in high-rate paced heart failure model; assay type: in vivo, canine; settings: dog, plasma; Day 10 of continuous vessel dilator infusion 100 ng/kg·min SC; Day 0 0.66+/−0.37; read-out: Pre-proANF (56-92) plasma concentration (radioimmunoassay)
Method: A pharmaceutical formulation of VD was prepared in a Tris buffer. 16.0 g glycerol, 6.05 g tris-(hydroxymethyl)-aminomethane (“Tris”), 2.50 g meta cresol were mixed in a 1.00 L volumetric flask. Approximately 900 mL nanopure water was added to the volumetric flask and the mixture was magnetically stirred to reach complete dissolution. 4 normal hydrochloric acid was used to adjust pH to 7.3 at 25° C. Then, the flask was filled to 1 L mark with nanopure water. The pH was rechecked and verified to be 7.3 at 25° C. The pH 7.3 Tris buffer was stored at 2-8° C. until use.
Lyophilized VD peptide (Bachem) was weighted into a glass vial and dissolved into a known volume of the Tris buffer to a concentration between 1 mg/mL and 10 mg/mL. The VD peptide was dissolved by gentle mixing and the solution was allowed to rest for between 20 and 30 minutes. The pH of the solution was checked and adjusted to 7.3 with 0.1 N sodium hydroxide. […]
Seven days prior to the beginning of HRP (Day −7), all dogs were instrumented for ventricular pacing with an IPG (implantable pulse generator) including an RA (right atrium) and RV (right ventricle) lead, and a DSI (Digital Sciences International) device in the femoral artery for arterial blood pressure monitoring. Glomerular filtration rate (GFR) was measured by iohexol clearance on the day before the beginning of HRP (Day −1). […]

Sequence: EVVPPQVLSEPNEEAGAALSPLPEVPPWTGEVSPAQR [VD, Vessel Dilator]
- stability and compatibility of VD in Elliotts B Solution [1]: has been demonstrated
- level at 240 h [2]: 41.1 ng/mL
